One experiment deals with T1, human GPR84 receptor (Homo sapiens, UniProt Q9NQS5).
T1 construct: frozen aliquots prepared by acCELLerate; host or cells: CHO-K1
As to the kind of experiment: cAMP HTRF assay for identification of cellular GPR84 antagonists. Format: cell-based. Particulars: CHO-K1 cells stably expressing human GPR84; Forskolin + agonist 6-OAU (EC80); average or median values. The method in brief:
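IC50 came from 4-parameter fits over 20 μM–0.07 nM (11 points, duplicate), normalized between DMSO (0%) and agonist-free (100% inhibition) wells. Readout: cAMP-d2/Eu-cryptate HTRF in hGPR84 CHO-K1 cells given forskolin plus agonist, compound preincubated 30 min at room temperature.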
(In general: TR-FRET usually uses a lanthanide donor and a delayed reading to cut background.)

A further experiment has as its system rat DHT-PCOS model. Kind of experiment: In vivo assay 1: DHT driven rat PCOS model. Particulars: 26 days of drug administration. On the set-up: species or system Han-Wistar rats. How it is done: In Vivo Assay 1: GPR84 Ligand and Antagonist Characterization in PCOS Model
The efficacy of Example 3-2 in vivo on the treatment of POCS was measured in the DHT driven rat PCOS model. At 3 weeks of age, Han-Wistar rats were randomly divided into three experimental groups [control (n=10), DHT (n=10), and DHT plus Example 3-2 (n=10)] and implanted s.c. with 60-d continuous-DHT-release pellets (80 μg/d, Bayer AG, Germany). The dose of DHT was chosen to mimic the hyperandrogenic state in women with PCOS. Controls received identical pellets lacking the bioactive DHT molecule. Animal received a standard chow, only for the last week standard show was replaced by a high fat diet. Rats were weighted bi-weekly from 21 d of age. The study was concluded after 26 days of drug administration. […] Statistical analysis was performed with one-way analysis of variance, followed by Bonferroni's multiple comparison test against vehicle control groups using the GraphPad PRISM software, *p<0.05.

For experiment [1], the system named is mouse CFA model of inflammation. As to the kind of experiment: In vivo assay 2: CFA pain model, dynamic weight-bearing (DWB). The following applies: DWB 24 h after CFA. As for the experimental part:
In Vivo Assay 2: Effects of Example 3-2 in the CFA Pain Model
The efficacy of Example 3-2 in vivo on inflammatory pain was measured in inflamed paws after administration of complete Freund's adjuvant (CFA) (24 h) in the dynamic weight-bearing (DWB) model. The effects of repeated preventive treatment with Example 3-2 on pain following repeated oral administration (3×) in the mouse CFA model of inflammation were investigated using a preventive setting. The GPR84 antagonist Example 3-2 (20 or 60 mg/kg, 3× doses) was administered 2 h before injection of CFA and 6-8 h later at day 0. At 24 h after CFA application, the third dose of Example 3-2 was given 2 h before DWB testing. Statistical analysis was performed with one-way analysis of variance, followed by Bonferroni's multiple comparison test against vehicle control groups using the GraphPad PRISM software, *p<0.05.

Molecules are shown by their SMILES.

A word on the IC50: it is the midpoint of a concentration-inhibition curve.

T1 sequence (Q9NQS5 whole entry): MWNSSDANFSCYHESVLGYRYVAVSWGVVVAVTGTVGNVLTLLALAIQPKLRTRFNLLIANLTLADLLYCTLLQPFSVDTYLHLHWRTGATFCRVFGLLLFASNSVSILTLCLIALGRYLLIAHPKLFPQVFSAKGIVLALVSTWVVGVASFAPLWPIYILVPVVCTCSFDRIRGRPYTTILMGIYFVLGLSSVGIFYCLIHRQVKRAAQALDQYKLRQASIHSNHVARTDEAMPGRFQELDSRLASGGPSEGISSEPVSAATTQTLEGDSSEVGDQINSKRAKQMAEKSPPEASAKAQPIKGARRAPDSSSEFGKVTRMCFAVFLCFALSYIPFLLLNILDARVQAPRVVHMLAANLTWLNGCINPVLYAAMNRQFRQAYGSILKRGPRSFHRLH

In the case of `Cc1c(C(=O)NC[C@@H]2CCCO2)oc2c1-c1nn(Cc3ccccn3)cc1CC2` [Example 3-2, 8-methyl-2-(pyridin-2-ylmethyl)-N-[(2S)-tetrahydrofuran-2-ylmethyl]-4,5-dihydro-2H-furo[2,3-g]indazole-7-carboxamide], the IC50 at human GPR84 receptor came to 110 nM. Further, the weight gain result in the experiment on rat DHT-PCOS model (DHT driven rat PCOS model) is “gained less weight compared to the untreated control”. Also, the “Relative weight vs. Vehicle control” value with rat DHT-PCOS model (rat DHT-PCOS model, p.o. 60 mg/kg morning dose + s.c. 60 mg/kg evening dose, DHT-Vehicle group 111%) was 103% * (significant vs. The “Weight distribution (% weight on injected paw) mean +/- SD” value is 60 +/− 21 (not significant vs. vehicle group) % in experiment [1] (3x 20 mg p.o., vehicle 43 +/- 20, not significant vs. vehicle group) and 83 +/− 18 (significant vs. vehicle group) % in experiment [1] (3x 60 mg p.o., vehicle 43 +/- 20, significant vs. vehicle group).

Take `O=C(NC[C@H]1COCCO1)c1oc2c(c1C(F)(F)F)-c1nn(C[C@H]3COCCO3)cc1CC2` [Example 300, N,2-bis{[(2S)-1,4-dioxan-2-yl]methyl}-8-(trifluoromethyl)-4,5-dihydro-2H-furo[2,3-g]indazole-7-carboxamide]: the IC50 at human GPR84 receptor worked out at 322 nM.

`O=C(NC[C@H]1COCCO1)c1oc2c(c1C(F)(F)F)-c1nn(C[C@@H]3COCCO3)cc1CC2` [Example 301, 2-{[(2R)-1,4-dioxan-2-yl]methyl}-N-{[(2S)-1,4-dioxan-2-yl]methyl}-8-(trifluoromethyl)-4,5-dihydro-2H-furo[2,3-g]indazole-7-carboxamide]: on human GPR84 receptor, the IC50 was found to be 723 nM.

As for `CC(=O)N1CCC(Cn2cc3c(n2)-c2c(oc(C(=O)NC[C@@H]4CCCO4)c2C(F)(F)F)CC3)CC1` [Example 305, 2-[(1-acetylpiperidin-4-yl)methyl]-N-{[(2S)-oxolan-2-yl]methyl}-8-(trifluoromethyl)-4,5-dihydro-2H-furo[2,3-g]indazole-7-carboxamide], the IC50 at human GPR84 receptor came out at 16 nM.

Consider `CC(=O)N1CCC(Cn2cc3c(n2)-c2c(oc(C(=O)NC[C@@H]4COCCO4)c2C(F)(F)F)CC3)CC1` [Example 306], for which, on human GPR84 receptor, the 50% inhibitory concentration (IC50) came out at 27 nM.

`O=C(NC[C@@H]1CCCO1)c1oc2c(c1C(F)(F)F)-c1nn(CC3CCN(CC4CC4)CC3)cc1CC2` [Example 307, 2-{[1-(cyclopropylmethyl)piperidin-4-yl]methyl}-N-{[(2S)-oxolan-2-yl]methyl}-8-(trifluoromethyl)-4,5-dihydro-2H-furo[2,3-g]indazole-7-carboxamide]: at human GPR84 receptor, the IC50 is 62 nM.

Turning to `CN1CCC(Cn2cc3c(n2)-c2c(oc(C(=O)NC[C@@H]4CCCO4)c2C(F)(F)F)CC3)CC1` [Example 308, 2-[(1-methylpiperidin-4-yl)methyl]-N-{[(2S)-oxolan-2-yl]methyl}-8-(trifluoromethyl)-4,5-dihydro-2H-furo[2,3-g]indazole-7-carboxamide], the IC50 on human GPR84 receptor stood at 151 nM.

In the case of `CN1CCC(Cn2cc3c(n2)-c2c(oc(C(=O)NC[C@@H]4COCCO4)c2C(F)(F)F)CC3)CC1` [Example 309, N-{[(2R)-1,4-dioxan-2-yl]methyl}-2-[(1-methylpiperidin-4-yl)methyl]-8-(trifluoromethyl)-4,5-dihydro-2H-furo[2,3-g]indazole-7-carboxamide], at human GPR84 receptor, the IC50 was 154 nM.

On to `O=C(NC[C@@H]1COCCO1)c1oc2c(c1C(F)(F)F)-c1nn(CC3CCN(CC4CC4)CC3)cc1CC2` [Example 310, 2-{[1-(cyclopropylmethyl)piperidin-4-yl]methyl}-N-{[(2R)-1,4-dioxan-2-yl]methyl}-8-(trifluoromethyl)-4,5-dihydro-2H-furo[2,3-g]indazole-7-carboxamide], for which the IC50 on human GPR84 receptor amounted to 197 nM.

For `CCN1CCC(Cn2cc3c(n2)-c2c(oc(C(=O)NC[C@@H]4CCCO4)c2C(F)(F)F)CC3)CC1` [Example 311, 2-[(1-ethylpiperidin-4-yl)methyl]-N-{[(2S)-oxolan-2-yl]methyl}-8-(trifluoromethyl)-4,5-dihydro-2H-furo[2,3-g]indazole-7-carboxamide], the IC50 at human GPR84 receptor was determined as 202 nM.

Take `CCN1CCC(Cn2cc3c(n2)-c2c(oc(C(=O)NC[C@@H]4COCCO4)c2C(F)(F)F)CC3)CC1` [Example 312, N-{[(2R)-1,4-dioxan-2-yl]methyl}-2-[(1-ethylpiperidin-4-yl)methyl]-8-(trifluoromethyl)-4,5-dihydro-2H-furo[2,3-g]indazole-7-carboxamide]: the IC50 at human GPR84 receptor was found to be 760 nM.

`Cc1ccc(Cn2cc3c(n2)-c2c(oc(C(=O)N[C@@H]4CCOC4)c2C)CC3)nc1` [Example 318, 8-methyl-2-[(5-methylpyridin-2-yl)methyl]-N-[(3R)-oxolan-3-yl]-4,5-dihydro-2H-furo[2,3-g]indazole-7-carboxamide]: the IC50 on human GPR84 receptor came out at 8310 nM.

Take `Cc1c(C(=O)NC[C@@H]2CCCO2)oc2c1-c1nn(Cc3ccc(C#N)cn3)cc1CC2` [Example 319, 2-[(5-cyanopyridin-2-yl)methyl]-8-methyl-N-{[(2S)-oxolan-2-yl]methyl}-4,5-dihydro-2H-furo[2,3-g]indazole-7-carboxamide]: the IC50 at human GPR84 receptor is 1120 nM.

Regarding `O=C(NC[C@@H]1COCCO1)c1oc2c(c1C(F)(F)F)-c1nn(C[C@H]3COCCO3)cc1CC2` [Example 320, N-{[(2R)-1,4-dioxan-2-yl]methyl}-2-{[(2S)-1,4-dioxan-2-yl]methyl}-8-(trifluoromethyl)-4,5-dihydro-2H-furo[2,3-g]indazole-7-carboxamide], at human GPR84 receptor, the IC50 was 12 nM.

With `O=C(NCc1cnc(C2CC2)cn1)c1oc2c(c1C(F)(F)F)-c1nn(C[C@H]3COCCO3)cc1CC2` [Example 321, N-[(5-cyclopropylpyrazin-2-yl)methyl]-2-{[(2S)-1,4-dioxan-2-yl]methyl}-8-(trifluoromethyl)-4,5-dihydro-2H-furo[2,3-g]indazole-7-carboxamide], the IC50 at human GPR84 receptor worked out at 3 nM.
